From US6706663B2, “Herbicidal 3-heterocyclic substituted benzisothiazole and benzisoxazole compounds” (Wyeth, priority 2000, dated 2004)

Assays:
[1] = system: ECHORC (Echinochloa oryzoides); test: Flooded paddy, preemergence weed control; assay type: in vivo, Echinochloa oryzoides (Ard.) Fritsch.; conditions: rated 3-4 weeks after treatment, 0-9 rating scale
Summary of the method: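 Under paddy conditions, seeds or vegetative propagules go into the top 0.5 cm of silt loam; the soil is then flooded to 1.5–3 cm and kept so. Treated pots stay in a greenhouse; response is rated 0-9 visually versus control.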

[2] = system: IPOHE (Ipomoea hederacea); test: Preemergence herbicidal evaluation; assay type: in vivo, (L.) Jacq.; conditions: rated 4-5 weeks after treatment
ORYSAT (Rice, Tebonnet) = test: Flooded paddy, post-transplant rice tolerance; assay type: in vivo, Oryza sativa, (L.) Tebonnet; conditions: flooded paddy, post-transplant rice, rated 3-4 weeks after treatment, 0-9 rating scale
Summary of the method: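 Seedlings aged ten days are transplanted in pairs into undrained pots of silt loam, which are then flooded to a depth of 1.5 to 3 cm. After herbicide application the pots are kept in a greenhouse with the flood maintained. Plants are rated 0-9 by visual comparison with controls.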

[3] = system: GLXMAW (Soybean, Williams); test: Postemergence herbicidal evaluation; assay type: in vivo, Glycine max, (L.) Merr. cv Williams; conditions: for GLXMAW herbicidal rating: postemergence
Summary of the method: (§1)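 Seedlings grown about two weeks in flats, sprayed, then kept under standard greenhouse care. Rated visually 4–5 weeks after treatment on a 0–9 scale (stand, vigour, malformation, size, chlorosis, overall appearance) relative to untreated control; repeat tests averaged.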

[4] = system: GLXMAW (Soybean, Williams); test: Preemergence herbicidal evaluation; assay type: in vivo, Glycine max, (L.) Merr. cv Williams; conditions: rated 4-5 weeks after treatment
ZEAMX (Corn, Field) [5] = test: Postemergence herbicidal evaluation; assay type: in vivo, Zea mays, L.; conditions: for ZEAMX herbicidal rating: postemergence
Summary of the method: as §1

[6] = system: TRZAWR (Wheat, Winter, cv Riband); test: Preemergence herbicidal evaluation; assay type: in vivo, Triticum aestivum; conditions: rated 4-5 weeks after treatment
Summary of the method: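 Applied before emergence as an aqueous acetone spray over seeded soil. Read-out: 0–9 visual rating covering plant stand, vigor, size, chlorosis, malformation and overall appearance compared with control, taken 4–5 weeks after spraying.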

[7] = system: ABUTH (Abutilon theophrasti); test: Preemergence herbicidal evaluation; assay type: in vivo, Medic.; conditions: rated 4-5 weeks after treatment
ZEAMX (Corn, Field) [8] = test: Preemergence herbicidal evaluation; assay type: in vivo, Zea mays, L.; conditions: rated 4-5 weeks after treatment
[9] = system: ECHCG (Echinochloa crus-galli); test: Postemergence herbicidal evaluation; assay type: in vivo, (L.) Beau; conditions: for ECHCG herbicidal rating: postemergence
Summary of the method: as §1

Cn1c(C(F)(F)F)cc(=O)n(-c2ccc3snc(C4OCCS4)c3c2)c1=O (stereo not drawn) [Compound 31, 1-methyl-3-[3-(1,3-oxathiolan-2-yl)-1,2-benzisothiazol-5-yl]-6-(trifluoromethyl)uracil]
herbicidal rating, ECHORC ([1]; rate 0.0080 kg/ha): 3.0 | herbicidal rating, ECHORC ([1]; rate 0.0320 kg/ha): 8.0 | herbicidal rating, ECHORC ([1]; rate 0.1250 kg/ha): 9.0 | IPOHE preemergence herbicidal rating ([2]; Rate 0.0620 kg/ha): 5.0 | IPOHE preemergence herbicidal rating ([2]; Rate 0.1250 kg/ha): 9.0 | IPOHE preemergence herbicidal rating ([2]; Rate 0.2500 kg/ha): 9.0 | herbicidal rating, ORYSAT (rice tolerance) (ORYSAT (Rice, Tebonnet); rate 0.0080 kg/ha): 0.0 | herbicidal rating, ORYSAT (rice tolerance) (ORYSAT (Rice, Tebonnet); rate 0.0320 kg/ha): 7.5 | herbicidal rating, ORYSAT (rice tolerance) (ORYSAT (Rice, Tebonnet); rate 0.1250 kg/ha): 9.0 | Postemergence herbicidal rating, GLXMAW ([3]; rate 0.0320 kg/ha): 8.5 | Postemergence herbicidal rating, GLXMAW ([3]; rate 0.0620 kg/ha): 9.0 | GLXMAW preemergence herbicidal rating ([4]; Rate 0.0620 kg/ha): 8.5 | GLXMAW preemergence herbicidal rating ([4]; Rate 0.1250 kg/ha): 7.3 | GLXMAW preemergence herbicidal rating ([4]; Rate 0.2500 kg/ha): 9.0 | Postemergence herbicidal rating, ZEAMX (ZEAMX (Corn, Field) [5]; rate 0.0320 kg/ha): 5.5 | Postemergence herbicidal rating, ZEAMX (ZEAMX (Corn, Field) [5]; rate 0.0620 kg/ha): 5.5 | TRZAWR preemergence herbicidal rating ([6]; Rate 0.0620 kg/ha): 7.0 | TRZAWR preemergence herbicidal rating ([6]; Rate 0.1250 kg/ha): 8.0 | TRZAWR preemergence herbicidal rating ([6]; Rate 0.2500 kg/ha): 9.0 | ABUTH preemergence herbicidal rating ([7]; Rate 0.0620 kg/ha): 8.3 | ABUTH preemergence herbicidal rating ([7]; Rate 0.1250 kg/ha): 9.0 | ABUTH preemergence herbicidal rating ([7]; Rate 0.2500 kg/ha): 9.0 | ZEAMX preemergence herbicidal rating (ZEAMX (Corn, Field) [8]; Rate 0.0620 kg/ha): 4.7 | ZEAMX preemergence herbicidal rating (ZEAMX (Corn, Field) [8]; Rate 0.1250 kg/ha): 6.3 | ZEAMX preemergence herbicidal rating (ZEAMX (Corn, Field) [8]; Rate 0.2500 kg/ha): 8.5 | Postemergence herbicidal rating, ECHCG ([9]; rate 0.0320 kg/ha): 2.0 | Postemergence herbicidal rating, ECHCG ([9]; rate 0.0620 kg/ha): 2.0

Cn1c(C(F)(F)F)cc(=O)n(-c2ccc3snc(C4OCCCS4)c3c2)c1=O (stereo not drawn) [Compound 34, 1-methyl-3-[3-(1,3-oxathian-2-yl)-1,2-benzisothiazol-5-yl]-6-(trifluoromethyl)uracil]
herbicidal rating, ECHORC ([1]; rate 0.0320 kg/ha): 9.0 | herbicidal rating, ECHORC ([1]; rate 0.0620 kg/ha): 8.0 | herbicidal rating, ECHORC ([1]; rate 0.1250 kg/ha): 9.0 | IPOHE preemergence herbicidal rating ([2]; Rate 0.0620 kg/ha): 9.0 | Preemergence herbicidal rating IPOHE ([2]; Rate 0.0620 kg/ha): 6.0 | IPOHE preemergence herbicidal rating ([2]; Rate 0.1250 kg/ha): 9.0 | Preemergence herbicidal rating IPOHE ([2]; Rate 0.1250 kg/ha): 6.0 | IPOHE preemergence herbicidal rating ([2]; Rate 0.2500 kg/ha): 9.0 | Preemergence herbicidal rating IPOHE ([2]; Rate 0.2500 kg/ha): 9.0 | herbicidal rating, ORYSAT (rice tolerance) (ORYSAT (Rice, Tebonnet); rate 0.0080 kg/ha): 3.0 | herbicidal rating, ORYSAT (rice tolerance) (ORYSAT (Rice, Tebonnet); rate 0.0080 kg/ha, listed as 81): 5.0 | herbicidal rating, ORYSAT (rice tolerance) (ORYSAT (Rice, Tebonnet); rate 0.0320 kg/ha): 6.7 | herbicidal rating, ORYSAT (rice tolerance) (ORYSAT (Rice, Tebonnet); rate 0.0620 kg/ha): 8.5 | herbicidal rating, ORYSAT (rice tolerance) (ORYSAT (Rice, Tebonnet); rate 0.1250 kg/ha): 9.0 | herbicidal rating, ORYSAT (rice tolerance) (ORYSAT (Rice, Tebonnet); rate 0.1250 kg/ha, listed as 81): 8.0 | GLXMAW herbicidal rating ([3]; rate 0.0320 kg/ha): 6.5 | GLXMAW herbicidal rating ([3]; rate 0.0620 kg/ha): 6.5 | Postemergence herbicidal rating, GLXMAW ([3]; rate 0.0320 kg/ha): 9.0 | Postemergence herbicidal rating, GLXMAW ([3]; rate 0.0620 kg/ha): 9.0 | GLXMAW preemergence herbicidal rating ([4]; Rate 0.0620 kg/ha): 7.5 | Preemergence herbicidal rating GLXMAW ([4]; Rate 0.0620 kg/ha): 6.5 | GLXMAW preemergence herbicidal rating ([4]; Rate 0.1250 kg/ha): 9.0 | Preemergence herbicidal rating GLXMAW ([4]; Rate 0.1250 kg/ha): 7.0 | GLXMAW preemergence herbicidal rating ([4]; Rate 0.2500 kg/ha): 9.0 | Preemergence herbicidal rating GLXMAW ([4]; Rate 0.2500 kg/ha): 7.0 | ZEAMX herbicidal rating (ZEAMX (Corn, Field) [5]; rate 0.0320 kg/ha): 5.0 | ZEAMX herbicidal rating (ZEAMX (Corn, Field) [5]; rate 0.0620 kg/ha): 7.0 | Postemergence herbicidal rating, ZEAMX (ZEAMX (Corn, Field) [5]; rate 0.0320 kg/ha): 6.0 | Postemergence herbicidal rating, ZEAMX (ZEAMX (Corn, Field) [5]; rate 0.0620 kg/ha): 7.0 | TRZAWR preemergence herbicidal rating ([6]; Rate 0.0620 kg/ha): 5.0 | Preemergence herbicidal rating TRZAWR ([6]; Rate 0.0620 kg/ha): 5.0 | TRZAWR preemergence herbicidal rating ([6]; Rate 0.1250 kg/ha): 7.0 | Preemergence herbicidal rating TRZAWR ([6]; Rate 0.1250 kg/ha): 5.0 | TRZAWR preemergence herbicidal rating ([6]; Rate 0.2500 kg/ha): 8.0 | Preemergence herbicidal rating TRZAWR ([6]; Rate 0.2500 kg/ha): 7.0 | ABUTH preemergence herbicidal rating ([7]; Rate 0.0620 kg/ha): 9.0 | Preemergence herbicidal rating ABUTH ([7]; Rate 0.0620 kg/ha): 9.0 | ABUTH preemergence herbicidal rating ([7]; Rate 0.1250 kg/ha): 9.0 | Preemergence herbicidal rating ABUTH ([7]; Rate 0.1250 kg/ha): 9.0 | ABUTH preemergence herbicidal rating ([7]; Rate 0.2500 kg/ha): 9.0 | Preemergence herbicidal rating ABUTH ([7]; Rate 0.2500 kg/ha): 9.0 | ZEAMX preemergence herbicidal rating (ZEAMX (Corn, Field) [8]; Rate 0.0620 kg/ha): 5.0 | Preemergence herbicidal rating ZEAMX (ZEAMX (Corn, Field) [8]; Rate 0.0620 kg/ha): 4.5 | ZEAMX preemergence herbicidal rating (ZEAMX (Corn, Field) [8]; Rate 0.1250 kg/ha): 7.0 | Preemergence herbicidal rating ZEAMX (ZEAMX (Corn, Field) [8]; Rate 0.1250 kg/ha): 6.0 | ZEAMX preemergence herbicidal rating (ZEAMX (Corn, Field) [8]; Rate 0.2500 kg/ha): 9.0 | Preemergence herbicidal rating ZEAMX (ZEAMX (Corn, Field) [8]; Rate 0.2500 kg/ha): 6.5 | ECHCG herbicidal rating ([9]; rate 0.0320 kg/ha): 3.0 | ECHCG herbicidal rating ([9]; rate 0.0620 kg/ha): 4.0 | Postemergence herbicidal rating, ECHCG ([9]; rate 0.0320 kg/ha): 4.0 | Postemergence herbicidal rating, ECHCG ([9]; rate 0.0620 kg/ha): 6.0
